Data as given in US7807422B2, “Production of flavonoids by recombinant microorganisms” (The Research Foundation of State University of New York, priority 2004, dated 2010).

Legend:
[1] = tested on: Recombinant DFR F. ananassa; assay: In vitro DFR/FNR enzymatic reaction, TLC analysis; assay type: biochemical, Fragaria ananassa; settings: compound as substrate; pH 6.5, 30° C.
Description: (§1) Vector pTrcHis2-TOPO, either empty (control) or harboring the various cDNA sequences, was transformed into E. coli strain TOP10F′ (Invitrogen). Individual colonies were grown overnight in 3-mL Luria-Broth (LB) cultures with 100 μg/mL Ampicillin. The seed culture was used the following day to start a 50-mL main culture with an initial absorbance at 600 nm (A600) of 0.05. The main culture was left to grow at 37° C. until A600 reached 0.5-0.8. At that point, the inducer IPTG (isopropyl β-thiogalactoside) at a final concentration of 2 mM was added and the culture was left to grow for 4 hours at 30° C. Cells were harvested by centrifugation, resuspended in 5 mL of buffer (0.1 M K2HPO4/KH2PO4, pH 6.5), and lysed by either sonication or glass beads.
(§2) In vitro DFR and FNR enzymatic reactions were performed using 186 Bq of radiolabeled substrate and incubation was performed at 30° C. for 30 min−1 hour for DFR tests, and 30 min−2.5 hours for FNR tests. Ethyl acetate extraction was performed (twice) at the end of the incubation period, with 100 μL ethyl acetate. The organic phase was analyzed on a precoated TLC cellulose plate (Merck, Germany). The products, leucoanthocyanins and flavan-4-ols were separated from the respective substrates, dihydroflavonols and flavanones by chromatography in chloroform:acetic acid:water (10:9:1) system. The detection and quantification of radioactivity was performed using Fuji BAS1000 Bio-Imaging Analyzer. Protein content was determined using Lowry procedure with crystalline BSA as a standard. In vitro reaction products were identified by a previously published Rf values from in vitro reactions using heterologously expressed DFR proteins from Malus domestica (Punyasiri, et al., 2004, Arch. Biochem. Biophys., 431:22-30). Using TLC chromatography with chloroform:acetic acid:water (10:9:1), the Rf(×100) values for various flavonoids are DHK: 68; DHQ: 35; DHM: 11; NAR: 93; ERI: 61; LPg: 18; LCy: 8; LDp: 14; Apf: 45; Ltf: 18.
(§3) The in vitro reactions were performed using the optimal conditions (pH 6.5, 30° C.). […] No products were formed when using crude extract from E. coli harboring empty vector. DHQ and DHM were accepted as substrates by all seven recombinant enzymes, however, only the recombinant DFR enzymes derived from A. andraeanum, A. thaliana, I. nil, R. hybrida, and F. ananassa were able to catalyze the formation of LPg (Table 18). […] In addition, no LPg could be detected in assays using DFR from I. purpurea and L. hybrid even when the reaction period was extended and the amount of protein was increased up to 100 μg. In all cases, substrate specificity appeared to be independent of temperature or pH changes.

[2] = biological target: T1, Recombinant DFR A. thaliana (Arabidopsis thaliana, UniProt P51102); assay: In vitro DFR/FNR enzymatic reaction, TLC analysis; assay type: biochemical; settings: compound as substrate; pH 6.5, 30° C.
T1 construct: We amplified full-length cDNA of various plant DFR open reading frames by PCR and RT-PCR; made in house; host or cells: E. coli TOP10F′ (crude lysate)
T1 sequence (P51102 1-382): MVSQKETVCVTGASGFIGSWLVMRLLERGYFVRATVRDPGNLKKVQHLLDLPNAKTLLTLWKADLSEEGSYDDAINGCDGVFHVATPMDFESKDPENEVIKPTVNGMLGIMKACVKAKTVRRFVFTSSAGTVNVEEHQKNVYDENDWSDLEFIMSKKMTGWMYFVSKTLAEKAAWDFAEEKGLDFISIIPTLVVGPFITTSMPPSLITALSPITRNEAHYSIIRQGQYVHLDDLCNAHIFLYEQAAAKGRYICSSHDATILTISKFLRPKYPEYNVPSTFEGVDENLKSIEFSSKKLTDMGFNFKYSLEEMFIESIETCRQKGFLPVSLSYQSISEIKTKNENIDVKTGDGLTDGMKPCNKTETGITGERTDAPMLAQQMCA
Description: as §1, §2, §3

[3] = tested on: Recombinant DFR L. hybrid; assay: In vitro DFR/FNR enzymatic reaction, TLC analysis; assay type: biochemical, Lilium hybrid; settings: compound as substrate; pH 6.5, 30° C.
Description: as §1, §2, §3

[4] = tested on: Recombinant DFR A. andraeanum; assay: In vitro DFR/FNR enzymatic reaction, TLC analysis; assay type: biochemical, Anthurium andraeanum; settings: compound as substrate; pH 6.5, 30° C.
Description: as §1, §2, §3

Recombinant DFR I. nil = assay: In vitro DFR/FNR enzymatic reaction, TLC analysis; assay type: biochemical, Ipomoea nil; settings: compound as substrate; pH 6.5, 30° C.
Description: as §1, §2, §3

[5] = tested on: Recombinant DFR R. hybrida; assay: In vitro DFR/FNR enzymatic reaction, TLC analysis; assay type: biochemical, Rosa hybrida; settings: compound as substrate; pH 6.5, 30° C.
Description: as §1, §2, §3

[6] = tested on: Recombinant DFR I. purpurea; assay: In vitro DFR/FNR enzymatic reaction, TLC analysis; assay type: biochemical, Ipomoea purpurea; settings: compound as substrate; pH 6.5, 30° C.
Description: as §1, §2, §3

[7] = tested on: flavanone biosynthesis in recombinant yeast strain INV-4G; assay: Naringenin production from coumaric acid by INV-4G in the presence of apigenin (feedback inhibition); assay type: cell-based, S. cerevisiae
Excerpt: Heterologous expression and fermentation. In order to assemble the two different flavone biosynthetic pathways, recombinant INVSc1 carrying plasmid Ycc4c181G was transformed with YC-FSI, YC-FSII or YC-FSII+CPR1 separately, yielding recombinant strains INV-4G+FSI, INV-4G+FSII, and INV-4G+FSII+CPR1. Yeast colonies harboring both plasmids were selected upon growth on SC agar plates lacking leucine and tryptophan (SC-Leu-Trp-). For flavone fermentation purposes, an individual recombinant yeast colony was grown overnight in 10-mL liquid SC-Leu-Trp-containing glucose at 30° C. with shaking. The following day, a portion of this culture was used to seed the main culture of SC-Leu-Trp-containing galactose and raffinose or MA-Leu-Trp-containing galactose and acetate to an Ab600 of 0.4. 0.5 mM of phenylpropanoid acid (cinnamic acid, p-coumaric acid, caffeic acid, ferulic acid) was then added to the main culture, and incubation was carried out at 30° C. with horizontal shaking for a maximum of 92 hours.
Considering that INV-4G+FSI produced more apigenin than INV-4G+FSII+CPR1, we tested the possibility that flavanone biosynthesis is feedback—inhibited by apigenin. For this purpose, recombinant yeast strain carrying only the four flavanone biosynthetic genes (INV-4G) was created by simultaneously inserting YP-4G and empty YCplac22 plasmid. INV-4G was then tested for the ability to generate naringenin from coumaric acid, in the presence of apigenin. […] In the presence of 1 mg/L apigenin, the production of naringenin at stationary phase was reduced by 14%.

A. andraeanum DFR = assay: Biotransformation assay of flavanones with recombinant E. coli harboring Anthurium DFR (flavanone reductase activity); assay type: cell-based, Anthurium andraeanum; settings: substrate 0.4 mg/mL, 30° C., 24 hours, HPLC
Description: Seed cultures of recombinant E. coli harboring Anthurium DFR were grown in LB with 100 μg/mL ampicillin. After 24 hours, the preinoculum was used to seed a 50-mL main culture which was incubated at 37° C. until A600 reached 0.5. IPTG and flavanone substrates were added at a final concentration of 2 mM and 0.4 mg/mL respectively, and incubation proceeded at 30° C. for 24 hours before harvesting. Flavonoid products in the culture supernatant were extracted twice with an equal volume of ethyl acetate. The organic solvent was collected and evaporated using a rotary evaporator, and the residue was dissolved in water.
The products were analyzed by HPLC using an Agilent HPLC 1100 series instrument with a diode array detector. HPLC was carried out using a reverse phase ZORBAX SB-C18 column (diameter 4.6 mm×150 mm) using an acetonitrile (solvent A) and water (solvent B) gradient at a flow rate of 1 ml/min. The HPLC program conditions used were as follows: 10% to 40% A (0-10 min), 40% to 60% A (10-15 min), 60% A (15-20 min). Absorbance at 280 nm was monitored in all cases. […] The UV maximum for the various flavan-4-ols synthesized were: 276 nm for 2,4-cis-flavan-4-ol; 275 nm for 2,4-trans-flavan-4-ol; 281 nm for 2,4-cis-7-hydroxyflavan-4-ol; and 279 nm for 2,4-trans-7-hydroxyflavan-4-ol.
Besides NAR and ERI, four other commercially available flavanones were tested as substrates using the recombinant A. andraeanum DFR enzyme. The biotransformation assay was chosen for that purpose, since these flavanones cannot be synthesized as radio-isotopomers.

[8] = tested on: E. coli JM109 carrying plasmid pK184; assay: Effect of naringenin on E. coli growth; assay type: cell-based
Description: E. coli shake-flask experiments. The identification of compounds produced from recombinant E. coli strain JM109 carrying plasmid pDGFA184 was done in a similar way to what has already been described in the literature Hwang et al., 2003, Appl. Environ Microbiol., 69:2699-2706). More specifically, 3 ml of Luria-Broth rich medium containing 50 ug/ml kanamycin was inoculated with the recombinant strain and was incubated at 37° C. with vigorous shaking. The next day, 200 ml of LB containing 50 μg/ml kanamycin was inoculated with 1 ml of overnight culture and the culture was incubated at 37° C. with vigorous shaking at 300 rpm to an OD600 of approximately 0.6. Next, the inducer IPTG was added to the culture to a final concentration of 1 mM. In order to avoid the formation of inclusion bodies, after the addition of the inducer the culture was incubated at room temperature with vigorous shaking overnight. Next day the cells were harvested by centrifugation and washed twice with M9 minimal medium. The pellets were then resuspended in 200 ml M9 minimal medium containing 50 μg/ml kanamycin, 1 mM IPTG and various concentrations of naringenin. In order to measure growth curves, the cultures were left to grow at room temperature with vigorous shaking until late stationary phase was reached. For flavonoid extraction experiments, the cultures were left to grow at room temperature for 65 h, again with horizontal vigorous shaking.
We tested the effect of naringenin on E. coli growth by incubating cultures of JM109 carrying plasmid pK184 in M9 minimal medium (50 μg/ml kanamycin) in the presence of different concentrations of naringenin (0.1 mM, 0.3 mM, 0.5 mM and 1 mM).

E. coli BL21 Star = assay: Effect of phenylpropanoid acids on E. coli growth (growth curves); assay type: cell-based
Description: Growth Curves. In order to investigate the effect of Phenylpropanoid acids on E. coli growth, E. coli BL21 Star was inoculated in 3 ml M9 liquid minimum medium and was left to grow at 37° C. overnight (preinoculum). The following day, 1 ml from the preinoculum was transferred to either 50 ml M9 minimal or Luria-Bertani (LB) rich liquid medium and p-coumaric acid, caffeic acid or cinnamic acid were added in the culture at different final concentrations (0 mM, 0.2 mM, 0.5 mM, 1 mM and 2 mM). Cell growth was monitored by measuring the absorbance at 600 nm (A600).
Phenylpropanoid acids reduce E. coli growth. We tested the effect of both p-coumaric acid and cinnamic acid on E. coli growth by incubating BL21 Star in M9 minimum medium and LB rich medium in the presence of different concentration of these compounds (0 mM, 0.05 mM, 0.1 mM, 0.15 mM, 0.2 mM, 1 mM, and 2 mM). […] For example, in the case of p-coumaric acid in […], the growth rate dropped from 0.28 h^−1 (control, 0 mM) to 0.18 h^−1 (2 mM). Similarly, for cinnamic acid the growth rate dropped from 0.27 h^−1 (control, 0 mM) to 0.17 h^−1 (2 mM) in M9 minimal medium.

[9] = tested on: S. cerevisiae strain INVSC1 carrying plasmid Ycc4c181; assay: Growth of recombinant yeast fed with phenylpropanoid acids; assay type: cell-based; settings: preliminary data
Description: Yeast Shake Flask Experiment. A single colony of strain INVSC1 carrying plasmid Ycc4c181 was inoculated into 15 ml of SC-Leu minimal medium containing 2% glucose and was left to grow overnight at 30° C. with shaking (preinoculum). The following day, 50 ml induction medium (SC-Leu medium containing 2% galactose) was seeded with medium-free preinoculum to a final absorbance at 600 nm (A600) of 0.4. Cells were then left to grow at 30° C. with vigorous shaking for 4 hours. At that time, 50 μl of a 0.25 M stock solution of substrate (cinnamic acid, p-coumaric acid, caffeic acid or ferulic acid) were added to the culture to a final concentration of 0.25 mM. The culture was left to grow at 30° C. for a total of 65 hours with horizontal shaking. During that time, the culture was supplemented with another 50 μl of substrate stock every 12 hours for a total of 4 times.
Cinnamic acid was provided in a total of 5 increments to the culture. […] In all cases, after 65 hours of fermentation, only trace amounts of cinnamic acid were detected in the culture.
Flavanone compounds were identified by comparison of the retention time and UV profile with those of authentic standards and literature data.

## O=C1C[C@@H](c2ccc(O)c(O)c2)Oc2cc(O)cc(O)c21 [ERI, eriodictyol]
[1]
  Specific activity: 0.6 pkatal/mg
[2]
  Specific activity: 0.6 pkatal/mg
[3]
  Specific activity: 0.6 pkatal/mg
[4]
  Specific activity: 0.8 pkatal/mg
Recombinant DFR I. nil
  Specific activity: 0.6 pkatal/mg
[5]
  Specific activity: 0.7 pkatal/mg
[6]
  Specific activity: 0.6 pkatal/mg

## O=c1cc(-c2ccc(O)cc2)oc2cc(O)cc(O)c12 [apigenin]
[7]; 1 mg/L apigenin
  production of naringenin at stationary phase reduced by: 14%
[7]; 3 mg/L apigenin
  naringenin production decline: approximately 60%
[7]; 10 mg/L apigenin
  naringenin production decline: ~85%

## O=C1c2c(O)cc(O)cc2O[C@H](c2ccc(O)cc2)[C@H]1O [DHK, dihydrokaempferol]
[1]
  Specific activity: 14 pkatal/mg
[2]
  Specific activity: 0.002 pkatal/mg
[3]
  Specific activity: 0 pkatal/mg
[4]
  Specific activity: 21 pkatal/mg
Recombinant DFR I. nil
  Specific activity: 0.3 pkatal/mg
[5]
  Specific activity: 0.4 pkatal/mg
[6]
  Specific activity: 0 pkatal/mg

## COc1ccc([C@@H]2CC(=O)c3c(O)cc(O)cc3O2)cc1O [hesperetin]
A. andraeanum DFR
  reduction to the corresponding flavan-4-ol: not

## O=C1C[C@@H](c2ccc(O)cc2)Oc2cc(O)cc(O)c21 [naringenin]
[8]; 1 mM naringenin in minimal medium, after 13 h cell growth
  final dry cell weight concentration: 0.492 mg/mL
[8]; 1 mM naringenin vs control, 13 h
  reduction in the final dry cell weight: 16%
[8]; 1 mM naringenin, M9 minimal medium
  maximum specific growth rate: 0.14 h⁻¹
[8]; 1 mM naringenin, after 13 h of growth
  OD600 (final cell mass): 1.0
[1]
  Specific activity: 0.5 pkatal/mg
[2]
  Specific activity: 0 pkatal/mg
[3]
  Specific activity: 0 pkatal/mg
[4]
  Specific activity: 0.7 pkatal/mg
Recombinant DFR I. nil
  Specific activity: 0.3 pkatal/mg
[5]
  Specific activity: 0.4 pkatal/mg
[6]
  Specific activity: 0 pkatal/mg

## O=C1c2c(O)cc(O)cc2O[C@H](c2cc(O)c(O)c(O)c2)[C@H]1O [DHM, dihydromyricetin]
[1]
  Specific activity: 1.4 pkatal/mg
[2]
  Specific activity: 1.0 pkatal/mg
[3]
  Specific activity: 1.2 pkatal/mg
[4]
  Specific activity: 1.4 pkatal/mg
Recombinant DFR I. nil
  Specific activity: 1.5 pkatal/mg
[5]
  Specific activity: 1.3 pkatal/mg
[6]
  Specific activity: 1.5 pkatal/mg

## O=C1c2c(O)cc(O)cc2O[C@H](c2ccc(O)c(O)c2)[C@H]1O [DHQ, dihydroquercetin]
[1]
  Specific activity: 1.2 pkatal/mg
[2]
  Specific activity: 1.3 pkatal/mg
[3]
  Specific activity: 1.3 pkatal/mg
[4]
  Specific activity: 1.4 pkatal/mg
Recombinant DFR I. nil
  Specific activity: 1.3 pkatal/mg
[5]
  Specific activity: 1.0 pkatal/mg
[6]
  Specific activity: 1.2 pkatal/mg

## O=C1CC(c2ccccc2)Oc2ccccc21 (stereo not drawn) [flavanone]
A. andraeanum DFR
  reduction to the corresponding flavan-4-ol: able to reduce

## O=C(O)/C=C/c1ccc(O)cc1 [p-coumaric acid]
E. coli BL21 Star; 2 mM p-coumaric acid, M9 rich medium
  growth rate: 0.18 h⁻¹

## O=C(O)C=Cc1ccccc1 [cinnamic acid]
E. coli BL21 Star; 2 mM cinnamic acid, M9 minimal medium
  growth rate: 0.17 h⁻¹
[9]
  concentration in the medium resulting in significant cell growth arrest: above 0.5 mM

## COc1cc(OC)c2c(c1)OC(c1ccccc1)CC2=O (stereo not drawn) [5,7-dimethoxyflavanone]
A. andraeanum DFR
  reduction to the corresponding flavan-4-ol: not
